# In patent publication US8404724B2, “Unit dose formulations and methods of treating thrombosis with an oral factor Xa inhibitor” (Millennium Pharmaceuticals, Inc., priority 2006, dated 2013):
# Where a name gives a salt, the structure may show the parent alone. Read-outs that look alike come from different tables or passages of the source.
# Experiments:
# PT and aPTT = experiment: Ex vivo PT and aPTT in rat carotid model; settings: 3 mg/kg/day
# Protocol: The third model investigated inhibition of ^111In labeled platelet deposition on dacron grafts and expansion chambers placed in femoral arteriovenous shunts in baboons. In all models tested, betrixaban and enoxaparin were administered as IV infusions and clopidogrel was dosed orally for three days. Ex vivo PT and aPTT were measured in all models.
# [1] = tested on: vessel patency in FeCl3 induced thrombosis in rat carotid artery; experiment: Rat carotid artery FeCl3 induced thrombosis model; assay type: in vivo
# Protocol: Rat FeCl3 model adapted from Kurz, K. D. et al. Thromb. Res. 1990; 60(4):269-280, incorporated by reference in its entirety herein, utilizing the left carotid artery. A stenosis of the artery was applied with a silk ligature reducing blood flow by 50% with a light crush injury followed by application of 50% FeCl3 for the duration of the experiment. Blood flow was monitored via pulsed Doppler flow probe and recorded for 90 minutes post-FeCl3 application. Enoxaparin and Betrixaban administered IV. Clopidogrel administered orally Q.D. for 3 days.
# [2] = tested on: TF-induced plasma thrombin generation; experiment: TF-induced plasma thrombin generation assay (plasma pool); assay type: biochemical, human
# Source text: For the in vitro studies, a plasma pool was generated from blood collected via venipuncture into 3.2% (1:9 v/v) tri-sodium citrate from a minimum of ten donors. The specific thrombin substrate used was Z-GGR-AMC (Bachem). Tissue factor (Innovin, “TF”) was purchased from Dade Behring. Rabbit anti-human TF IgG and purified recombinant human TF were from American Diagnostica. COATEST LMW Heparin/Heparin Kits were from Chomogenix. Source of anticoagulants tested were as follows: enoxaparin sodium (Aventis Pharmaceuticals), fondaparinux sodium (Glaxo Smith Kline), bivalirudin (The Medicines Company), fXa inhibitor C921-78 (Betz, A. et al. Biochem., 1999; 38-14582-14591); rivaroxaban and razaxaban.
# Thrombin generation in the plasma pool in the absence and presence of various anticoagulants and in warfarin treated patients was initiated by the addition of Innovin and calcium. Thrombin generation was measured by the continuous signal generated by cleavage of thrombin substrate over a 10 min period in a FlexStation fluorescence reader ([…]). The fluorescence signal (Max-Min relative fluorescence units) is presented as units (RFU) or arbitrary unites (AU) of thrombin generation and anti-fXa units were measured by Coatest. Quantitation of TF concentration in Innovin was carried out by immunoblotting with rabbit anti-human TF IgG, followed by densitometry and comparison with purified human TF (residues 1-263, expressed in baculovirus).
# [3] = tested on: prothrombin time in rabbit plasma; experiment: In vitro extension of PT in rabbit plasma
# [4] = tested on: prothrombin time in human plasma; experiment: In vitro extension of PT in human plasma
# [5] = tested on: tissue factor initiated thrombin generation in human whole blood; experiment: Whole blood prothrombinase / tissue factor initiated thrombin generation assay; assay type: biochemical
# Protocol: Thrombin activity was quantitated by cleavage of the fluorogenic substrate. […] Relative fluorescence unit (RFU) measurements of representative donor is shown.
# Thrombin generation assays were performed as described in Example 4, with compounds added ex vivo to human whole blood. PT and aPTT values in various species determined from compounds added to platelet poor plasma. Samples were run on an ACL 3000plus (Coulter), PT determined using Dade® Thromboplastin C plus and aPTT determined using Dade® Actin® FS Activated PTT reagent.
# [6] = tested on: thrombus growth (platelet deposition, fibrin deposition) in arteriovenous shunt; experiment: Thrombogenic device in arteriovenous shunt in baboons; assay type: in vivo, baboon
# [7] = tested on: thrombin generation, anti-Xa activity, aPTT, PT, INR in patient plasma; experiment: Randomized trial after total knee replacement: pharmacodynamic measurements; assay type: in vivo, human
# Protocol: Blood samples for assessment of plasma drug concentrations and pharmacodynamic measurements were obtained at screening, 1 to 4 hours after administration of the morning dose of study medication on Day 2, on the day of discharge and prior to the mandatory venogram on Day 10 to 14. Plasma samples were analyzed for betrixaban using high-performance-liquid-chromatography with tandem mass spectrometry. The method was validated for a range from 0.100-50.0 ng/mL, based on the analysis of 0.2 mL plasma. Quantitation was performed using a calibration standard curve generated from weighted least square regression analysis. […] The anti-Xa unit assay was adapted from the Coatest LMW heparin kit (Diapharma) and modified to a 96-well plate format. In this assay, standards and patient samples were assayed in duplicate and the limit of quantification was 0.05 anti-Xa U/mL. Thrombin generation was initiated by the addition of tissue factor (Innovin, Dade Behring) and calcium to citrate anticoagulated patient plasma (0.1 mL). Formation of thrombin was measured by cleavage of a specific thrombin substrate (Z-GGR-AMC, Bachem) over a 10 minute period. Relative fluorescence units were measured in a FlexStation fluorescence reader (Molecular Devices) and used for quantitation of thrombin generation. All patient plasma samples were assayed in triplicate and inhibition of thrombin generation reported as change from baseline relative fluorescent unit for each individual.
# [8] = tested on: thrombus mass in rabbit abdominal vena cava; experiment: Rabbit vena cava thrombosis model (clot accretion on cotton threads); assay type: in vivo; settings: 3 mg/kg IV infusion
# Protocol: Multiple doses of betrixaban were evaluated in three animal models. […] Efficacy in rabbit venous thrombosis was determined by measuring the thrombus accretion on cotton threads placed in the vena cava by means of a catheter inserted into the left femoral vein, as described by Hollenbach et al., Thromb. Haemost. 1994; 71:357-362, incorporated by reference in its entirety herein. The decrease in thrombus weight following a two hour infusion of compound was expressed relative to vehicle control. See also Sinha, et al., Eur. J. Pharmacology. 395:51-59 (2000), incorporated by reference in its entirety herein.
# [9] = Randomized trial after total knee replacement: bleeding and tolerability; parameters: species or system human; settings: in vivo
# Source text: The primary efficacy endpoint was the incidence of venous thromboembolism (“VTE”) (symptomatic or asymptomatic deep vein thrombosis on a mandatory unilateral venogram or symptomatic pulmonary embolism) through Day 10 to 14. Safety endpoints included the incidence of major and clinically significant nonmajor bleeds through the day after venography. All efficacy and bleeding endpoints were adjudicated by a blinded, independent central adjudication committee.
# [10] = Plasma concentration of betrixaban in baboon model; assay type: in vivo
# [11] = tested on: prothrombin time in rat plasma; experiment: In vitro extension of PT in rat plasma
# [12] = tested on: prothrombin time in baboon plasma; experiment: In vitro extension of PT in baboon plasma
# [13] = tested on: thrombin, factor VIIa, factor IXa, activated protein C, tissue plasminogen activator, plasmin and trypsin; experiment: Amidolytic assays for related proteases (specificity); assay type: biochemical; settings: relative to human fXa
# venous thromboembolism = experiment: Randomized trial after total knee replacement: VTE incidence; assay type: in vivo, human; settings: for VTE % (95% CI): 10 to 14 days after TKR
# Protocol: The primary efficacy endpoint was the incidence of venous thromboembolism (“VTE”) (symptomatic or asymptomatic deep vein thrombosis on a mandatory unilateral venogram or symptomatic pulmonary embolism) through Day 10 to 14. Safety endpoints included the incidence of major and clinically significant nonmajor bleeds through the day after venography. All efficacy and bleeding endpoints were adjudicated by a blinded, independent central adjudication committee. […] Enoxaparin was administered subcutaneously 12 to 24 hours after surgery and every 12 hours (q 12 h) thereafter. Treatment continued for 10 to 14 days unless a protocol-specified stopping criterion had been met. After discharge from the hospital, patients self-administered study medication. The last dose of study medication was administered the morning of the scheduled mandatory venography of the operated leg (Day 10 to 14).
# [14] = tested on: clotting parameters (ACT, PT, aPTT, anti fXa units, plasma thrombin generation); experiment: Ex vivo coagulation measurements and bleeding time in baboon model
# [15] = Salt selection properties; assay type: physicochemical
# [16] = Baboon Arteriovenous, 0.49 mg/kg
compound,measurement,setting,value
COC(=O)[C@H](c1ccccc1Cl)N1CCc2sccc2C1 [Clopidogrel],APTT fold change,PT and aPTT,1.03 fold
same,PT fold change,PT and aPTT,1.01 fold
same,Antithrombotic Activity,[1]; 3 mg/kg/day orally for 3 days,80% patency
Bivalirudin,IC50,[2],2.4 mg/L
O=C(NC[C@H]1CN(c2ccc(N3CCOCC3=O)cc2)C(=O)O1)c1ccc(Cl)s1 [Rivaroxaban],IC50,[2]; read-out: IC50,0.08 µM
CN(C)Cc1nccn1-c1ccc(NC(=O)c2cc(C(F)(F)F)nn2-c2ccc3onc(N)c3c2)c(F)c1 [Razaxaban],IC50,[2]; read-out: IC50,0.125 µM
COc1ccc(NC(=O)c2ccc(C(=N)N(C)C)cc2)c(C(=O)Nc2ccc(Cl)cn2)c1 [betrixaban],concentration for 2× change of PT,[3],1.6 µM
same,concentration for 2× change of PT,[4],0.4 µM
same,"suppressing both markers of thrombin generation, compared to fondaparinux (200 nM)","[5]; 200 nM, human whole blood",more potent
same,TAT and F1.2 generation,[5]; human whole blood,significantly inhibited
same,tissue factor initiated thrombin generation,[5]; human whole blood,dose-dependent inhibition
same,platelet mediated prothrombinase activity,[5]; whole blood prothrombinase assay,dose-dependently inhibited
same,Antithrombotic Activity (arterial),[6]; [16],32% inhibition
same,Antithrombotic Activity (venous),[6]; [16],90% inhibition
same,Platelet deposition at 140 minutes,"[6]; Dose 3 (26-38 ng/ml), P<0.05",significant decrease compared to control
same,% Inhibition of Fibrin Formation,[6]; Dosed Group 1,−0.38%
same,% Inhibition of Platelet Deposition,[6]; Dosed Group 1,29.71%
same,% Inhibition of Fibrin Formation,[6]; Dosed Group 2,37.50%
same,% Inhibition of Platelet Deposition,[6]; Dosed Group 2,44.20%
same,% Inhibition of Fibrin Formation,[6]; Dosed Group 3,71.97%
same,% Inhibition of Platelet Deposition,[6]; Dosed Group 3,65.22%
same,% Inhibition of Fibrin Formation,[6]; Dosed Group 4,87.12%
same,% Inhibition of Platelet Deposition,[6]; Dosed Group 4,88.77%
same,Platelet deposition at 140 minutes,"[6]; dose 4 (54-88 ng/ml), P value<0.01",significant decrease compared to control
same,effect on anti-Xa activity,"[7]; 15 mg, compared with enoxaparin",less
same,effect on the inhibition of thrombin generation,"[7]; 40 mg, TKR patients, compared with enoxaparin",more pronounced
same,effect on anti-Xa activity,"[7]; 40 mg, compared with enoxaparin",similar
same,"other coagulation parameters (i.e. aPTT, PT and INR)",[7]; TKR patients,did not appreciably affect
same,Antithrombotic Activity,[8],76% inhibition
same,safety and tolerability,[9],safe and well tolerated
same,Plasma Concentration Range of Betrixaban,[10]; Dosed Group 1,0.007 to 0.01 µg/mL
same,Plasma Concentration Range of Betrixaban,[10]; Dosed Group 2,0.013 to 0.021 µg/mL
same,Plasma Concentration Range of Betrixaban,[10]; Dosed Group 3,0.026 to 0.038 µg/mL
same,Plasma Concentration Range of Betrixaban,[10]; Dosed Group 4,0.054 to 0.088 µg/mL
same,concentration for 2× change of PT,[11],8.9 µM
same,Antithrombotic Activity,[1]; 19.1 mg/kg IV,90% patency
same,concentration for 2× change of PT,[12],1 µM
same,specificity against related proteases,[13],"greater than 86,000 fold"
same,VTE % (95% CI),venous thromboembolism; 15 mg BID orally,20 (12-32) %
same,VTE % (95% CI),venous thromboembolism; 40 mg BID orally,15 (8-27) %
same,preventing VTE after TKR,venous thromboembolism; in vivo,effective
same,Template bleeding times,[14]; any of the betrixaban treated animals,not perturbed
same,Anti fXa units,[14]; highest dose,0.31 Units/ml
same,inhibition of plasma thrombin generation (ex vivo),[14]; highest dose,72%
same,inhibition of plasma thrombin generation (ex vivo),[14]; lowest dose,13%
same,Anti fXa units,[14]; three lower doses,below the limit of quantitation
COc1ccc(NC(=O)c2ccc(C(=N)N(C)C)cc2)c(C(=O)Nc2ccc(Cl)cn2)c1 [betrixaban maleate],"crystallinity, thermal and hydrolytic stability",[15],excellent
